Like-named read-outs stand apart in the source and are kept apart here.
Experiments:
[1] = tested on: T lymphocytes (normal mouse spleen cells) stimulated with ConA; experiment: Mouse Spleen Cell ConA Blastogenesis Assay; format: cell-based, mouse (C57Bl/6); details: Mus musculus, T-lymphocyte; for inhibition at 0.1 µg/mL: compound 0.1 ug/ml; for inhibition at 1 µg/mL: compound 1 ug/ml; for inhibition at 2.5 µg/mL: compound 2.5 ug/ml; for inhibition at 10 µg/mL: compound 10 ug/ml; for inhibition at 25 µg/mL: compound 25 ug/ml; for inhibition at 100 µg/mL: compound 100 ug/ml
[2] = tested on: T cell proliferation in mouse spleen cell mixed lymphocyte cultures; experiment: Mixed Lymphocyte Reaction (MLR) assay; format: cell-based, mouse (Balb/c responder, C57B1/6 stimulator)
Text: The pharmacologic assays performed to determine the immunomodulatory effects of the experimental compounds in vitro include the Mixed Lymphocyte Reaction (MLR) and the ConA blastogenesis assay. These assays were used to determine the inhibitory effects of the compounds of the invention on T lymphocyte activation and proliferation. Since inflammation at the cellular level is characterized by T lymphocyte recruitment, activation and proliferation, these assays are appropriate to use as screens for novel compounds having therapeutic potential in the treatment of disorders in which inflammatory mechanisms are involved.
The MLR is a classical assay used to measure T cell function by studying the proliferative response of T cells which are activated in vitro by genetically disparate stimulator cells. This is accomplished by co-culturing spleen cells from two different strains of mice. Splenic T cell proliferation occurs as a result of cellular activation signals generated by the ongoing cellular interactions.
Balb/c mice were euthanised by cervical dislocation and their spleens removed. Single cell suspensions of the spleens were prepared in culture medium (hepes buffered RPMI-1640 supplemented with 10% fetal calf serum, 2mM glutamine, 500 units penicillin/ streptomycin, and 4×10^-5 M 2-mercaptoethanol) using a Teflon pestle. The cells were centrifuged at 1500 rpm and the pellets resuspended in ACT (0.15M tris, 0.14M ammonium chloride, pH 7.2) in order to lyse the red blood cells. After a 5 minute incubation in a 37 C. waterbath, the cells were resuspended in culture medium and counted. C57B1/6 spleen cells which were used as stimulator cells, were also prepared by this method. The stimulator cells were treated with 100 ug/ml of mitomycin c for 1 hour at 37 C. (to inhibit stimulatory cell proliferation) and were then washed 5 times in culture medium. The proliferative responses were measured by culturing 2.5×10^5 responder cells with 5×10^5 stimulatory cells in 96 well microtiter plates in the presence or absence of various doses of test compounds or vehicle (DMSO). Syngeneic control cultures using mitomycin c treated Balb/c spleen cells as stimulator cells were also run. All cultures were run in triplicate.
Solutions of compounds of the present invention in DMSO were prepared at a stock concentration of 120 Mm. Dilutions were made in culture medium to the following concentrations: 3, 10, 30, 100, and 300 uM. The vehicle (DMSO) was used as a negative control.
After incubation of for 5 days at 37 C. with 5% CO2, the amount of cell proliferation was measured by adding 20 ul of MTT (3-[4,5-dimethylthiazol-2-yl]-2,5diphenyl-tetrazolium bromide) (10 mg/ml in phosphate buffered saline) to each well. Plates were incubated for 4 hours at 37 C., after which 180 ul of 10% sodium dodecyl sulphate in phosphate buffered saline was added. After an overnight incubation, the optical density (OD) of each well was read on a Molecular Devices microplate reader at 570-650 nm. The results were determined by calculating the difference between the means of the allogeneic cultures and the means of the syngenic cultures for each test article concentration. Differences of the test article groups were compared to the control group and the percent change from the control was determined.

[3] = ConA 1 ug/ml, read-out: % change from control, ConA blastogenic response
[4] = ConA 4 ug/ml, read-out: % change from control, ConA blastogenic response

## CCCCC/C=C\COC[C@H]1O[C@](COC/C=C\CCCCC)(OC)[C@@H](O)[C@@H]1O [Ig, methyl 1,6-di-O-(cis,2-octenyl)-α-D-fructofuranoside]
[1]; ConA 1 ug/ml, 0.01 ug/ml, read-out: % Change from Control (Table II)
  inhibition at 0.01 µg/mL: 3%
[1]; ConA 1 ug/ml, compound 0.01 ug/ml, read-out: % change from control, ConA blastogenic response
  inhibition at 0.01 µg/mL: -10%
[1]; [3]
  inhibition at 0.1 µg/mL: 10%
  inhibition at 1 µg/mL: 4%
  inhibition at 2.5 µg/mL: 11%
  inhibition at 10 µg/mL: 87%
  inhibition at 25 µg/mL: 84%
  inhibition at 100 µg/mL: 99%
[1]; ConA 4 ug/ml, 0.01 ug/ml, read-out: % Change from Control (Table II)
  inhibition at 0.01 µg/mL: -7%
[1]; ConA 4 ug/ml, compound 0.01 ug/ml, read-out: % change from control, ConA blastogenic response
  inhibition at 0.01 µg/mL: -12%
[1]; [4]
  inhibition at 0.1 µg/mL: 9%
  inhibition at 1 µg/mL: 5%
  inhibition at 2.5 µg/mL: 20%
  inhibition at 10 µg/mL: 73%
  inhibition at 25 µg/mL: 77%
  inhibition at 100 µg/mL: 100%
[2]; 3 um
  Mean O.D. Allogenic: 0.412 O.D.
  Mean O.D. Syngeneic: 0.155 O.D.
[2]; 10 um
  Mean O.D. Allogenic: 0.421 O.D.
  Mean O.D. Syngeneic: 0.182 O.D.
[2]; 30 um
  Mean O.D. Allogenic: 0.399 O.D.
  Mean O.D. Syngeneic: 0.157 O.D.
[2]; 100 um
  Mean O.D. Allogenic: 0.419 O.D.
  Mean O.D. Syngeneic: 0.173 O.D.
[2]; 300 um
  Mean O.D. Allogenic: 0.474 O.D.
  Mean O.D. Syngeneic: 0.037 O.D.
[2]; Mus musculus, Lymphocyte, 3 um, read-out: % Change From Control, MLR
  inhibition at 3 µM: -34%
[2]; Mus musculus, Lymphocyte, 10 um, read-out: % Change From Control, MLR
  inhibition at 10 µM: -24%
[2]; Mus musculus, Lymphocyte, 30 um, read-out: % Change From Control, MLR
  inhibition at 30 µM: -26%
[2]; Mus musculus, Lymphocyte, 100 um, read-out: % Change From Control, MLR
  inhibition at 100 µM: -28%
[2]; Mus musculus, Lymphocyte, 300 um, read-out: % Change From Control, MLR
  inhibition at 300 µM: -81%

— US5298494A, “Monosaccharides having anti-proliferation and anti-inflammatory activity, compositions and uses thereof” (Greenwich Pharmaceuticals Incorporated, priority 1993, dated 1994)
